Measurements taken from paper PMC6864482, “Novel C7-Substituted Coumarins as Selective Monoamine Oxidase Inhibitors: Discovery, Synthesis and Theoretical Simulation” (Molecules, 2019).
pIC50: −log10 of the molar value. Counter-ions that a name gives are not always drawn. Like-named read-outs stand apart in the source and are kept apart here. Values belong to the molecule of their own block, whether it stands above or below them.

Columns and labels:
hMAO-A [1] = target: T1, hMAO-A (Homo sapiens, UniProt P21397); assay: MAO-Glo inhibition assay, hMAO-A; type: biochemical
T1 sequence (P21397 1-527): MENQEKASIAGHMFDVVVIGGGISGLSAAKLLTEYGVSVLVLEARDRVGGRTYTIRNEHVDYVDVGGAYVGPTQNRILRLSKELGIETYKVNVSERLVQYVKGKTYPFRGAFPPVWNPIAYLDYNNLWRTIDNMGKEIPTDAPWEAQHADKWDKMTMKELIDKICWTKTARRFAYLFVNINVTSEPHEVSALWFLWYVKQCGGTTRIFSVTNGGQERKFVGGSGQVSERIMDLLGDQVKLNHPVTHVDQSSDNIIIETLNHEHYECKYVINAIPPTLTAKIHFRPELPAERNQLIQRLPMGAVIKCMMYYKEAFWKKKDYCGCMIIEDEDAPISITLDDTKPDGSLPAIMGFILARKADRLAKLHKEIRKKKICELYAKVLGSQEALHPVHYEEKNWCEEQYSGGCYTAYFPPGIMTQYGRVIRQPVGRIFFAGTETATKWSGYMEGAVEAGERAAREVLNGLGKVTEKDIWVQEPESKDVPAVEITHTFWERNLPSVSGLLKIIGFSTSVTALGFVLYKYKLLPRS
Protocol: (§1) The inhibition and IC50 values of the identified C7-substituted coumarin analogues were assayed by Shanghai ChemPartner Co. Ltd., using MAO-GloTM assay kit (Promega Corporation, V1402). Two human MAO enzymes (Cat#31502, Cat#31503) were purchased from Active Motif. Clorgyline and R(-)-deprenyl were purchased as reference drugs from Sigma (Cat. No. M3778) and Abcam (Cat. No. ab120604), respectively. The MAO inhibition assays were carried out in modified HEPES buffer in light of the manufacturer’s protocol. Firstly, the tested compounds in DMSO were transferred to a 384-well plate by Echo. The enzyme solutions were then added into the plate and the plate was incubated for 15 min at room temperature (r.t.). Secondly, the luciferin derivative substrate was added to initiate the reaction. After 60 min incubation at r.t., the Luciferin detection reagent was added to each well to terminate the reaction and generate the luminescent signal. Before reading the signal, the plate was incubated for 20 min at r.t. Finally, plate reader was used to measure and record the luminescent signal and corresponding data were processed using GraphPad Prism 5.

hMAO-B [2] = target: T2, hMAO-B (Homo sapiens, UniProt P27338); assay: MAO-Glo inhibition assay, hMAO-B; type: biochemical
T2 sequence (P27338 1-520): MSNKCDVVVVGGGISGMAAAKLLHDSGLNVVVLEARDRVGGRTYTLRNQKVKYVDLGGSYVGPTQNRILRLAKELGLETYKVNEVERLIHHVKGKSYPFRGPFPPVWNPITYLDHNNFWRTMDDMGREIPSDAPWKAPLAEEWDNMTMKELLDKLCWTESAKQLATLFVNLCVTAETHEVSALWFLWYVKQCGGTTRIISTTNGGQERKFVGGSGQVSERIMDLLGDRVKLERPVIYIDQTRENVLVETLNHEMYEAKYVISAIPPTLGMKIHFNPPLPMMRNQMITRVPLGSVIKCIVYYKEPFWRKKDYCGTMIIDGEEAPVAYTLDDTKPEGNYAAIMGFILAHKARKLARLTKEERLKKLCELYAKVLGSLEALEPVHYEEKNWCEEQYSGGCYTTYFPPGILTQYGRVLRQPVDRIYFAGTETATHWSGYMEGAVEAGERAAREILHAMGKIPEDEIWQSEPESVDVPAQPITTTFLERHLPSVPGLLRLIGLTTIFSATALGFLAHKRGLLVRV
Protocol: as §1

hMAO-B [3] = target: T2, hMAO-B; settings: cited from earlier work; for pIC50: read-out: MAO-B IC50
hMAO-A [4] = target: T1, hMAO-A; settings: cited from earlier work
[5] = Table S3, Esuprone derivatives, read-out: MAO-A* IC50
[6] = purchased (Specs) or synthesized compounds, read-out: MAO-A IC50
[7] = purchased (Specs) or synthesized compounds
[8] = experimental activity of reference ligand C18 of 2V61, source not stated
[9] = previously identified BRS-3D hits
[10] = pIC50 = −log(IC50), previously identified BRS-3D hits
[11] = previously identified BRS-3D hits, read-out: MAO-A IC50

Compound: Cc1c(OS(=O)(=O)c2ccc([N+](=O)[O-])cc2)ccc2c3c(c(=O)oc12)CCC3 (as salt: benzenesulfonate) [5c, 6-Methyl-4-oxo-1,2,3,4-tetrahydrocyclopenta[c]chromen-7-yl 4-nitrobenzenesulfonate]
melting point: 192 to 194 °C

Compound: O=c1cc(C2CC2)c2ccc(OS(=O)(=O)c3ccc([N+](=O)[O-])cc3)cc2o1 (as salt: benzenesulfonate) [7f, 4-Cyclopropyl-2-oxo-2H-chromen-7-yl 4-nitrobenzenesulfonate]
melting point: 192 to 194 °C

Compound: CCCc1cc(=O)oc2c(C)c(OS(=O)(=O)c3ccc(C)cc3)ccc12 (as salt: benzenesulfonate) [7i, 8-Methyl-2-oxo-4-propyl-2H-chromen-7-yl 4-methylbenzenesulfonate]
melting point: 144 to 146 °C

Compound: CCCc1cc(=O)oc2c(C)c(OS(=O)(=O)c3ccc([N+](=O)[O-])cc3)ccc12 (as salt: benzenesulfonate) [7j, 8-Methyl-2-oxo-4-propyl-2H-chromen-7-yl 4-nitrobenzenesulfonate]
melting point: 171 to 174 °C

Compound: CCS(=O)(=O)Oc1ccc2c3c(c(=O)oc2c1C)CCC3 [5a, 6-Methyl-4-oxo-1,2,3,4-tetrahydrocyclopenta[c]chromen-7-yl ethanesulfonate]
pIC50 (hMAO-A [1]; [5]): 7.96
melting point: 150 to 151 °C
pIC50 (hMAO-B [2]; Table S3, Esuprone derivatives): 5.64

Compound: Cc1ccc(S(=O)(=O)Oc2ccc3c4c(c(=O)oc3c2C)CCC4)cc1 [5b, 6-Methyl-4-oxo-1,2,3,4-tetrahydrocyclopenta[c]chromen-7-yl 4-methylbenzenesulfonate]
pIC50 (hMAO-A [1]; [5]): 7.92
melting point: 152 °C
pIC50 (hMAO-B [2]; Table S3, Esuprone derivatives): 5.31

Compound: Cc1c(OS(=O)(=O)c2ccc([N+](=O)[O-])cc2)ccc2c3c(c(=O)oc12)CCC3 [5c, 6-Methyl-4-oxo-1,2,3,4-tetrahydrocyclopenta[c]chromen-7-yl 4-nitrobenzenesulfonate]
pIC50 (hMAO-A [1]; [5]): > 8.30
pIC50 (hMAO-A [1]; read-out: hMAO-A IC50): ~8.30
pIC50 (hMAO-B [2]; Table S3, Esuprone derivatives): 6.23

Compound: Cc1c(Oc2nnc(-c3ccccc3)s2)ccc2c3c(c(=O)oc12)CCC3 [5d]
pIC50 (hMAO-A [1]; [6]): 7.02
melting point: 140 °C
pIC50 (hMAO-B [2]; [7]): 5.64

Compound: CCCc1cc(=O)oc2cc(Oc3nnc(-c4ccccc4)s3)ccc12 [7b, 7-((5-Phenyl-1,3,4-thiadiazol-2-yl)oxy)-4-propyl-2H-chromen-2-one]
pIC50 (hMAO-A [1]; [6]): 7.62
melting point: 150 °C

Compound: Cc1c(C)c2cc(Cl)c(Oc3nnc(-c4ccccc4)s3)cc2oc1=O [7c, 6-Chloro-3,4-dimethyl-7-((5-phenyl-1,3,4-thiadiazol-2-yl)oxy)-2H-chromen-2-one]
pIC50 (hMAO-A [1]; [6]): 6.09
melting point: 171 to 173 °C
pIC50 (hMAO-B [2]; [7]): 6.36

Compound: CCS(=O)(=O)Oc1ccc2c(C3CC3)cc(=O)oc2c1 [7d, 4-Cyclopropyl-2-oxo-2H-chromen-7-yl ethanesulfonate]
pIC50 (hMAO-A [1]; [5]): 5.85
melting point: 92 °C
pIC50 (hMAO-B [2]; Table S3, Esuprone derivatives): < 4.00

Compound: Cc1ccc(S(=O)(=O)Oc2ccc3c(C4CC4)cc(=O)oc3c2)cc1 [7e, 4-Cyclopropyl-2-oxo-2H-chromen-7-yl 4-methylbenzenesulfonate]
pIC50 (hMAO-A [1]; [5]): 5.96
melting point: 132 to 134 °C
pIC50 (hMAO-B [2]; Table S3, Esuprone derivatives): 5.02

Compound: O=c1cc(C2CC2)c2ccc(OS(=O)(=O)c3ccc([N+](=O)[O-])cc3)cc2o1 [7f, 4-Cyclopropyl-2-oxo-2H-chromen-7-yl 4-nitrobenzenesulfonate]
pIC50 (hMAO-A [1]; [5]): 7.02
pIC50 (hMAO-B [2]; Table S3, Esuprone derivatives): 5.05

Compound: O=c1cc(C2CC2)c2ccc(Oc3nnc(-c4ccccc4)s3)cc2o1 [7g, 4-Cyclopropyl-7-((5-phenyl-1,3,4-thiadiazol-2-yl)oxy)-2H-chromen-2-one]
pIC50 (hMAO-A [1]; [6]): 5.70
melting point: 158 to 160 °C
pIC50 (hMAO-B [2]; [7]): 5.21

Compound: CCCc1cc(=O)oc2c(C)c(OS(=O)(=O)CC)ccc12 [7h, 8-Methyl-2-oxo-4-propyl-2H-chromen-7-yl ethanesulfonate]
pIC50 (hMAO-A [1]; [5]): 6.04
melting point: 78 to 80 °C
pIC50 (hMAO-B [2]; Table S3, Esuprone derivatives): 5.00

Compound: CCCc1cc(=O)oc2c(C)c(OS(=O)(=O)c3ccc(C)cc3)ccc12 [7i, 8-Methyl-2-oxo-4-propyl-2H-chromen-7-yl 4-methylbenzenesulfonate]
pIC50 (hMAO-A [1]; [5]): 6.77
pIC50 (hMAO-B [2]; Table S3, Esuprone derivatives): 5.39

Compound: CCCc1cc(=O)oc2c(C)c(OS(=O)(=O)c3ccc([N+](=O)[O-])cc3)ccc12 [7j, 8-Methyl-2-oxo-4-propyl-2H-chromen-7-yl 4-nitrobenzenesulfonate]
pIC50 (hMAO-A [1]; [5]): 7.54
pIC50 (hMAO-B [2]; Table S3, Esuprone derivatives): 5.77

Compound: CCCc1cc(=O)oc2c(C)c(Oc3nnc(-c4ccccc4)s3)ccc12 [7k, 8-Methyl-7-((5-phenyl-1,3,4-thiadiazol-2-yl)oxy)-4-propyl-2H-chromen-2-one]
pIC50 (hMAO-A [1]; [6]): 7.68
melting point: 110 to 112 °C
pIC50 (hMAO-B [2]; [7]): 6.92

Compound: CNCc1cc(=O)oc2cc(OCc3cccc(Cl)c3)ccc12 [C18, reference compound]
MAO-B pIC50 (hMAO-B [3]; [8]): 7
MAO-A pIC50 (hMAO-A [4]; [8]): 4.8

Compound: CCS(=O)(=O)Oc1ccc2c(C)c(C)c(=O)oc2c1 [Esuprone, reference compound]
pIC50 (hMAO-A [4]; comparison value under Table S3, MAO-A by context, source not stated, read-out: IC50 value of Esuprone): 7.97

Compound: Cc1cc(=O)oc2c(C)c(OCC(=O)N(C)C)ccc12 [M29]
MAO-B Avg. Inh% at 10 uM (hMAO-B [3]; [9]): 12%
MAO-B pIC50 (hMAO-B [3]; [10]): 4
MAO-A Avg. Inh% at 10 uM (hMAO-A [4]; [9]): 75%
MAO-A pIC50 (hMAO-A [4]; [10]): 5.6
pIC50 (hMAO-A [4]; [11]): 5.64

Compound: CCc1cc(=O)oc2cc(OCC(=O)N(C)C)ccc12 [M30]
MAO-B Avg. Inh% at 10 uM (hMAO-B [3]; [9]): 22%
MAO-A Avg. Inh% at 10 uM (hMAO-A [4]; [9]): 56%

Compound: CCCc1cc(=O)oc2cc(OCC(=O)N(C)C)ccc12 [M31]
MAO-B Avg. Inh% at 10 uM (hMAO-B [3]; [9]): 16%
MAO-B pIC50 (hMAO-B [3]; [10]): 4.2
pIC50 (hMAO-B [3]; [9]): 4.19
MAO-A Avg. Inh% at 10 uM (hMAO-A [4]; [9]): 92%
MAO-A pIC50 (hMAO-A [4]; [10]): 6.3
pIC50 (hMAO-A [4]; [11]): 6.30

Compound: Cc1c(C)c2cc(Cl)c(OCC(=O)N(C)C)cc2oc1=O [M32]
MAO-B Avg. Inh% at 10 uM (hMAO-B [3]; [9]): 90%
MAO-B pIC50 (hMAO-B [3]; [10]): 6.2
pIC50 (hMAO-B [3]; [9]): 6.22
MAO-A Avg. Inh% at 10 uM (hMAO-A [4]; [9]): 12%
MAO-A pIC50 (hMAO-A [4]; [10]): 4.1
pIC50 (hMAO-A [4]; [11]): 4.09

Compound: Cc1cc(=O)oc2cc(OCC(=O)N(C)C)ccc12 [M33]
MAO-B Avg. Inh% at 10 uM (hMAO-B [3]; [9]): 8%
MAO-A Avg. Inh% at 10 uM (hMAO-A [4]; [9]): 41%

Compound: Cc1cc(=O)oc2cc(OCC(=O)N(C)C)c(Cl)cc12 [M34]
MAO-B Avg. Inh% at 10 uM (hMAO-B [3]; [9]): 40%
MAO-A Avg. Inh% at 10 uM (hMAO-A [4]; [9]): 19%

Continued, values first:

pIC50 (hMAO-A [1]; [6]): 8.82
inhibition at 10 µM (hMAO-B [2]): 75%
pIC50 (hMAO-B [2]; [7]): < 6.00
Compound: Cc1c(OC(=O)C2CC2)ccc2c3c(c(=O)oc12)CCC3 [FR1]

pIC50 (hMAO-A [1]; [6]): 5.55
inhibition at 10 µM (hMAO-B [2]): 12%
pIC50 (hMAO-B [2]; [7]): < 5.00
Compound: Cc1c(OCC(=O)N(C)C)ccc2c3c(c(=O)oc12)CCC3 [FR2]

pIC50 (hMAO-A [1]; [6]): 6.13
inhibition at 10 µM (hMAO-B [2]): 66%
pIC50 (hMAO-B [2]; [7]): < 5.30
Compound: C=CCOC(=O)COc1ccc2c3c(c(=O)oc2c1C)CCCC3 [FR3]

inhibition at 10 µM (hMAO-A [1]): 23%
pIC50 (hMAO-A [1]; [6]): < 5.00
pIC50 (hMAO-B [2]; [7]): 7.74
Compound: O=C(COc1ccc2c3c(c(=O)oc2c1)CCC3)c1ccc(Cl)cc1 [FR4]

inhibition at 10 µM (hMAO-A [1]): 28%
pIC50 (hMAO-A [1]; [6]): < 5.00
pIC50 (hMAO-B [2]; [7]): 7.82
Compound: Cc1cc(=O)oc2cc(OCCOc3ccccc3)ccc12 [FR5]

pIC50 (hMAO-A [1]; [6]): 7.72
inhibition at 10 µM (hMAO-B [2]): 64%
pIC50 (hMAO-B [2]; [7]): < 5.30
Compound: Cc1cc(=O)oc2c(C)c(Oc3nnc(-c4ccccc4)s3)ccc12 [SP1]
